Test results: patent US9096555B2, “Methods for treating vascular leak syndrome” (Aerpio Therapeutics, Inc., priority 2009, dated 2015)
Entries after “also recorded” stand apart in the source; their conditions may differ.

What was measured:
[1] = system: pAKT and pERK1/2 in EA.hy962 cells; assay: Western blot analysis of pAKT and pERK1/2 in EA.hy962 cells; assay type: cell-based; conditions: EA.hy962 cells cultured with varying amounts of D91 for 10 minutes; FIG. 9a
Protocol: FIG. 9a depicts a Western blot analysis showing the increase in pAKT and pERK1/2 when EA.hy962 cells were cultured in the presence of varying amounts of […] for 10 minutes. FIG. 9b depicts a Western blot analysis showing the levels of pAKT, pERK1/2 and β-Actin when EA.hy962 cells were cultured in the presence of 10 μg/mL […] from start (T=0) to 120 minutes.

IL-2 induced VLS = assay: IL-2 induced vascular leak syndrome in mice (blood pressure, shock, mortality); assay type: in vivo; conditions: then 20 mg/kg for 3 days
Protocol: Twenty-five mice were used for the following experiment. Five are selected as the control and received no treatment. The remaining twenty mice were divided into four groups of five mice each and dosed as follows over a period of 5 days:
Tie-2 signal amplifier at 40 mg/kg for the first 2 days, then at 20 mg/kg for 3 days.
(VSL mechanistic analysis.

[2] = system: IL-2 induced hypotension and death; assay: Rescue of mice from IL-2 induced hypotension and death (systolic blood pressure); assay type: in vivo; conditions: C3H/HeN female mice; 400,000 IU of IL-2 and 40 mg/kg D91; after 5 days of treatment; FIG. 5
Protocol: A represents the systolic blood pressure of C3H/HeN female mice treated with vehicle control. […] Measurements were taken after 5 days of treatment.
A represents 0 mg/kg D91, B represents 1 mg/kg D91, C represents 3 mg/kg D91, D represents 10 mg/kg D91, and E represents 30 mg/kg D91.

[3] = system: LPS-induced renal vascular leak; assay: LPS-induced renal vascular leak, 70 kDa fluorescent fixable dextran; assay type: in vivo; conditions: mice; LPS at time 0, D91 at 1, 6 and 16 h; sacrifice at 24 hours; FIG. 10c
Protocol: FIG. 10a is a micrograph of a renal section from a mouse treated with vehicle control that is subsequently injected with 70 kDa fluorescent fixable dextran by intravenous catheter 2 minutes prior to sacrifice. G indicates glomerular capillaries where the dye should normally be contained.
FIG. 10b is a micrograph showing the vascular leakage in cells of a renal section from a mouse treat with LPS that is subsequently injected with 70 kDa fluorescent fixable dextran by intravenous catheter 2 minutes prior to sacrifice.
The pattern of staining in this section is similar to 10a.
Phosphatase inhibition by the disclosed PTP-β inhibitors reduces LPS-induced renal vascular leak. Mice were injected with LPS at time 0 and D91 or vehicle at 1, 6, and 16 h. Two minutes prior to sacrifice at 24 hours 70 kDa fluorescent fixable dextrans were administered by intravenous catheter. […] FIG. 10a is a micrograph of the control sample for the 70 kDa sample wherein the Letter “G” represents glomerular capillaries where the dye should normally be contained. FIG. 10b represents a renal section taken from an LPS treated animal and FIG. 10c represents a renal section taken from an animal treated with LPS and D91.

[4] = system: LPS-induced acute kidney injury; assay: Liposaccharide (LPS) induced vascular leak model: acute kidney injury (BUN, renal neutrophil infiltration); assay type: in vivo; conditions: male C57BL6 mice
Protocol: FIG. 7 depicts the level of blood urine nitrogen (BUN) in male C57BL6 mice injected i.p. with 0.2 mg E. coli lipopolysaccharides per 25 g body weight at 0 hours. Line (◯) represents mice receiving only LPS and line (●) represents mice receiving LPS and 50 mg/kg of D91 at 0, 8, and 16 hours.
FIG. 8 depicts the level of LPS-induced renal neutrophil infiltration at 24 hours in male C57BL6 mice injected i.p. with 0.2 mg E. coli lipopolysaccharides per 25 g body weight at 0 hours. A depicts the neutrophil infiltration in sham (conrol), B depicts the neutrophil infiltration in male C57BL6 mice injected i.p. with 0.2 mg E. coli lipopolysaccharides per 25 g body weight and 50 mg/kg of D91, C depicts mice receiving only LPS.
The following liposaccharide induced vascular leakage model can be used to confirm the ability of the disclosed compounds to decrease the effects of vascular leak syndrome caused by pathogens. […]
Male C57BL6 mice, 9 to 10 weeks old, were injected i.p. with 0.2 mg E. Coli lipopolysaccharide per 25 g body weight at time 0. […] Serum samples were analyzed for blood urea nitrogen (BUN) as a marker of kidney function.
Tissue samples from the animals were analyzed by high powered field microscopy to determine the number of polymorphonuclear leukocytes present.

brain edema after tMCAO = assay: Vasogenic edema after transient focal cerebral ischemia (tMCAO); assay type: in vivo, Sprague-Dawley rats; conditions: rats; tMCAO 60 min; 15 mg/kg t.i.d. s.c. starting 1 hour after stroke onset; after the 48 hour MRI
Protocol: 30 adult male Sprague-Dawley rats purchased from Charles River, Germany and weighing 250-330 g were used for the experiment. Animals were housed at a standard temperature (22±1° C.) and in a light-controlled environment (lights on from 7 am to 8 pm) with ad libitum access to food and water.
Animals were grouped as follows:
• Group A: 15 rats treated with Vehicle (2 mL/kg, t.i.d., s.c.) starting 1 hour after stroke onset • Group B: 15 rats treated with AKB-9778-AS (15 mg/kg, t.i.d., s.c.) starting 1 hour after stroke onset tMCAO
Transient focal cerebral ischemia was produced by MCA occlusion in male Sprague-Dawley rats according to Koizumi with modifications (Koizumi et al., Jpn. J. Stroke 8:1-8, 1986). […] The rats were carefully monitored for possible post-surgical complications after the tMCAO. […]
D91 or vehicle was administered s.c. three times a day. […] The body weight of each animal is measured daily. […]
Tissue viability and vasogenic edema was determined using absolute T2 MRI. […] In addition to absolute T2, spin density (amount of MRI visible protons, indicator of vasogenic edema) ratio of ipsi and contralateral ROI's was determined by extrapolating signal intensity at TE=0 from multiple TE data (intercept of T2 fitting).
For the determination of infarct volume, the same acquired T2-weighted images were analyzed using in-house written Matlab based software for morphometric measurement. […]

COC(=O)N[C@@H](Cc1ccccc1)C(=O)N[C@@H](Cc1ccc(NS(=O)(=O)O)cc1)c1csc(-c2cccs2)n1 [Compound D91, 4-{(S)-2-[(S)-2-(methoxycarbonylamino)-3-phenylpropanamido]-2-[2-(thiophen-2-yl)thiazol-4-yl]ethyl}phenylsulfamic acid]
pAKT and pERK1/2 (Western blot) [1]: increase
blood pressure (IL-2 induced VLS; IL-2 180,000 or 400,000 IU for 5 days plus D91 40 mg/kg first 2 days, FIG. 1): little effect on blood pressure
clinical symptoms of shock (IL-2 induced VLS; high dose IL-2 (400,000 IU, 5 days) plus D91 40 mg/kg first 2 days, FIG. 2): no signs of shock
IL-2 induced mortality (IL-2 induced VLS; high dose IL-2 (400,000 IU, 5 days) plus D91 40 mg/kg first 2 days, FIG. 3): survived
rescue from IL-2 induced hypotension and death (systolic blood pressure) [2]: rescue of mice from IL-2 induced hypotension and death
extrusion of 70 kDa fluorescent dextran dye beyond the small peritubular capillaries (renal vascular leak) [3]: vascular integrity is preserved; also recorded: reduced
blood urine nitrogen (BUN) level ([4]; LPS 0.2 mg per 25 g i.p., D91 50 mg/kg at 0, 8 and 16 hours, at 24 hours, FIG. 7): less than 80 mg/dL
number of PMN cells present (renal neutrophil infiltration), high powered field microscopy ([4]; LPS plus D91 50 mg/kg, 24 hours, average, FIG. 8): 12
brain tissue wet weight in ischemic hemisphere (edema) (brain edema after tMCAO): significantly lower
